We go through 2 compounds from patent publication US20230085307A1, “PYRIDAZINONE COMPOUND AND HERBICIDE” (NISSAN CHEMICAL CORPORATION, priority 2019, published 2023).

One assay relates to late watergrass. Kind of assay: Test Example 1: herbicidal activity, application before weed generation under submerged conditions (Table 16, symbol A). It is filed as in vivo, late watergrass (Echinochloa oryzicola). The following applies: amount of applied herbicide 320 g/ha. The procedure, abridged: (§1)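 Emulsion formulation, water-diluted to set dose, was put onto the flooded surface (4 cm depth, alluvial soil) the same day weeds were sown and 2.5-leaf rice transplanted. After 3 weeks at 25-30 °C under glass, each species was rated 0 (≤5% kill) to 5 (≥90% kill).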

The test system of assay [1] is Japanese bulrush. Kind of assay: Test Example 1: herbicidal activity, application before weed generation under submerged conditions (Table 16, symbol B). The format is in vivo, Japanese bulrush (Schoenoplectus juncoides). The following applies: amount of applied herbicide 320 g/ha. The procedure, abridged: as §1
The test system of assay [2] is Japanese bulrush. Kind of assay: Test Example 2: herbicidal activity, application during weed generation under submerged conditions (Table 17, symbol B). The format is in vivo, Japanese bulrush (Schoenoplectus juncoides). The procedure, abridged:
(§2)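 3-wk visual-criteria score after one water-surface dose. Emulsion formulation, water-diluted to set rate; applied at 1–2 leaf stage; alluvial soil, 4 cm standing water; seeds co-sown; greenhouse 25–30° C.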

The next assay deals with oval-leafed pondweed. The assay is described as follows: Test Example 2: herbicidal activity, application during weed generation under submerged conditions (Table 17, symbol C). It is filed as in vivo, oval-leafed pondweed (Monochoria vaginalis). The procedure, abridged: as §2
Another assay has as its system southern crabgrass. Kind of assay: Test Example 4: herbicidal effect by soil treatment (Table 19, symbol F). It is filed as in vivo, southern crabgrass (Digitaria ciliaris). The following applies: amount of applied herbicide 320 g/ha. The procedure, abridged: (§3)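 Scoring uses the grading scale of an earlier test, three weeks post-application. Treatment consists of spraying a diluted emulsion formulation across the surface of sterilized diluvial soil in which seeds are buried near 1.5 cm deep; boxes are kept in a greenhouse between 25° C. and 30° C.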

The test system of assay [3] is barnyard grass. The assay is described as follows: Test Example 4: herbicidal effect by soil treatment (Table 19, symbol H). The format is in vivo, barnyard grass (Echinochloa crus-galli). The following applies: amount of applied herbicide 320 g/ha. A digest of the protocol: as §3
Assay [4] has as its system wild oat. The assay is described as follows: Test Example 4: herbicidal effect by soil treatment (Table 19, symbol I). The format is in vivo, wild oat (Avena fatua). The following applies: amount of applied herbicide 320 g/ha. A digest of the protocol:
as §3

The subject of assay [5] is blackgrass. Kind of assay: Test Example 4: herbicidal effect by soil treatment (Table 19, symbol J). The format is in vivo, blackgrass (Alopecurus myosuroides). The following applies: amount of applied herbicide 320 g/ha. A digest of the protocol:
as §3

In the next assay the test system is Italian ryegrass. The assay is described as follows: Test Example 4: herbicidal effect by soil treatment (Table 19, symbol K). The format is in vivo, Italian ryegrass (Lolium multiflorum). The conditions noted are these: amount of applied herbicide 320 g/ha. The procedure, abridged: as §3
In assay [6] the test system is redroot pigweed. The assay is described as follows: Test Example 4: herbicidal effect by soil treatment (Table 19, symbol N). The format is in vivo, redroot pigweed (Amaranthus retroflexus). The following applies: amount of applied herbicide 320 g/ha. The procedure, abridged: as §3
For the next assay, the system named is false cleavers. The assay is described as follows: Test Example 4: herbicidal effect by soil treatment (Table 19, symbol Q). It is filed as in vivo, false cleavers (Galium spurium). The following applies: amount of applied herbicide 320 g/ha. A digest of the protocol: as §3
For the next assay, the system named is green foxtail. The assay is described as follows: Test Example 5: herbicidal effect by foliage application, plastic box (Table 20, symbol G). It is filed as in vivo, green foxtail (Setaria viridis). The conditions noted are these: foliage application, 320 g/ha. A digest of the protocol: (§4)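 Post-emergence foliar test in sterilized diluvial soil. Compound applied as water-diluted emulsion at a predetermined rate to 14-day-old plants; evaluation at three weeks.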

The subject of assay [7] is barnyard grass. The assay is described as follows: Test Example 5: herbicidal effect by foliage application, plastic box (Table 20, symbol H). It is filed as in vivo, barnyard grass (Echinochloa crus-galli). The conditions noted are these: foliage application, 320 g/ha. A digest of the protocol:
as §4

Assay [8] has as its system wild oat. Kind of assay: Test Example 5: herbicidal effect by foliage application, plastic box (Table 20, symbol I). The format is in vivo, wild oat (Avena fatua). The following applies: foliage application, 320 g/ha. The procedure, abridged:
as §4

Assay [9] concerns blackgrass. The assay is described as follows: Test Example 5: herbicidal effect by foliage application, plastic box (Table 20, symbol J). The format is in vivo, blackgrass (Alopecurus myosuroides). The following applies: foliage application, 320 g/ha. A digest of the protocol: as §4
Assay [10] concerns redroot pigweed. The assay is described as follows: Test Example 5: herbicidal effect by foliage application, plastic box (Table 20, symbol N). The format is in vivo, redroot pigweed (Amaranthus retroflexus). The following applies: foliage application, 320 g/ha, evaluated 3 weeks after application. The procedure, abridged: as §4
For a further assay, the system named is chickweed. Kind of assay: Test Example 5: herbicidal effect by foliage application, plastic box (Table 20, symbol P). The format is in vivo, common chickweed (Stellaria media). The conditions noted are these: foliage application, 320 g/ha, evaluated 3 weeks after application. A digest of the protocol: as §4
The mark [11] stands for this setting: AAH 320 g/ha, application during weed generation, submerged conditions.
The mark [12] stands for this setting: application during weed generation under submerged conditions, amount of applied herbicide 320 g/ha.
[13] abbreviates: evaluated 3 weeks after application.

Turning to `Cc1nn(C)c(=O)c(-c2c(-c3ccc(OC(C)C)cc3)oc3ccc(F)cc23)c1O` [9-025], in the assay on late watergrass, the “Herbicidal effect, A: late watergrass” value is recorded as 5 (Herbicidal rate of 90% or more (almost completely withered)). Besides, the “Herbicidal effect, B: Japanese bulrush” value in the assay with Japanese bulrush [1] is 5 (Herbicidal rate of 90% or more (almost completely withered)). In addition, the “herbicidal effect rating, B: Japanese bulrush” value with Japanese bulrush [2] (setting [11]) is 3 (Herbicidal rate of 40% or more and less than 70%). In addition, in the assay with oval-leafed pondweed (setting [11]), the “herbicidal effect rating, C: oval-leafed pondweed” value is 4 (Herbicidal rate of 70% or more and less than 90%). For the same compound, the “F: southern crabgrass, herbicidal effect grade” value in the assay on southern crabgrass was 4 (Herbicidal rate of 70% or more and less than 90%). In addition, the “H: barnyard grass, herbicidal effect grade” value in the assay with barnyard grass [3] is 4 (Herbicidal rate of 70% or more and less than 90%). Further, the “I: wild oat, herbicidal effect grade” value in the assay on wild oat [4] is listed as 0 (Herbicidal rate of 5% or less (almost no effect)). Also, in the assay on blackgrass [5], the “J: blackgrass, herbicidal effect grade” value is 3 (Herbicidal rate of 40% or more and less than 70%). Moreover, the “K: Italian ryegrass, herbicidal effect grade” value with Italian ryegrass is recorded as 5 (Herbicidal rate of 90% or more (almost completely withered)). The “N: redroot pigweed, herbicidal effect grade” value in the assay with redroot pigweed [6] is 3 (Herbicidal rate of 40% or more and less than 70%). Besides, the “Q: false cleavers, herbicidal effect grade” value in the assay with false cleavers is recorded as 0 (Herbicidal rate of 5% or less (almost no effect)). The “herbicidal effect on green foxtail (G)” value in the assay with green foxtail (three weeks after application) is 0 (Herbicidal rate of 5% or less (almost no effect)). The “herbicidal effect on barnyard grass (H)” value with barnyard grass [7] (three weeks after application) is 4 (Herbicidal rate of 70% or more and less than 90%). In the assay on wild oat [8] (three weeks after application), the “herbicidal effect on wild oat (I)” value is 3 (Herbicidal rate of 40% or more and less than 70%). Also, the “herbicidal effect on blackgrass (J)” value in the assay with blackgrass [9] (three weeks after application) is 4 (Herbicidal rate of 70% or more and less than 90%).

For the compound `Cc1nn(C)c(=O)c(-c2c(-c3ccc(Cl)cc3)sc3cccc(F)c23)c1O` [11-001], the “Herbicidal effect, A: late watergrass” value in the assay with late watergrass is 3 (Herbicidal rate of 40% or more and less than 70%). Moreover, in the assay with Japanese bulrush [1], the “Herbicidal effect, B: Japanese bulrush” value is given as 5 (Herbicidal rate of 90% or more (almost completely withered)). Besides, the “herbicidal effect grade, B: Japanese bulrush” value with Japanese bulrush [2] (setting [12]) is 3 (Herbicidal rate of 40% or more and less than 70%). Moreover, the “herbicidal effect grade, C: oval-leafed pondweed” value in the assay with oval-leafed pondweed (setting [12]) was 3 (Herbicidal rate of 40% or more and less than 70%). For the same compound, in the assay on southern crabgrass, the “F: southern crabgrass, herbicidal effect grade” value is reported as 0 (Herbicidal rate of 5% or less (almost no effect)). Also, the “H: barnyard grass, herbicidal effect grade” value with barnyard grass [3] is listed as 0 (Herbicidal rate of 5% or less (almost no effect)). Further, in the assay with wild oat [4], the “I: wild oat, herbicidal effect grade” value was 0 (Herbicidal rate of 5% or less (almost no effect)). In the assay with Italian ryegrass, the “K: Italian ryegrass, herbicidal effect grade” value is listed as 0 (Herbicidal rate of 5% or less (almost no effect)). The “N: redroot pigweed, herbicidal effect grade” value in the assay with redroot pigweed [6] is reported as 5 (Herbicidal rate of 90% or more (almost completely withered)). Besides, the “Q: false cleavers, herbicidal effect grade” value in the assay on false cleavers is on record as 0 (Herbicidal rate of 5% or less (almost no effect)). For the same compound, the “G (green foxtail) herbicidal effect grade” value in the assay with green foxtail (setting [13]) is 0 (Herbicidal rate of 5% or less (almost no effect)). In addition, the “H (barnyard grass) herbicidal effect grade” value in the assay on barnyard grass [7] (setting [13]) was 0 (Herbicidal rate of 5% or less (almost no effect)). In addition, in the assay with wild oat [8] (setting [13]), the “I (wild oat) herbicidal effect grade” value is 0 (Herbicidal rate of 5% or less (almost no effect)). Further, in the assay on blackgrass [9] (setting [13]), the “J (blackgrass) herbicidal effect grade” value is on record as 0 (Herbicidal rate of 5% or less (almost no effect)). The “N (redroot pigweed) herbicidal effect grade” value with redroot pigweed [10] is given as 5 (Herbicidal rate of 90% or more (almost completely withered)). Also, the “P (chickweed) herbicidal effect grade” value in the assay with chickweed is 5 (Herbicidal rate of 90% or more (almost completely withered)).
